{"source": "patent US12059416B2", "about": "“Combinations of a H3 antagonist and a noradrenaline reuptake inhibitor, and the therapeutical uses thereof” (BIOPROJET, priority 2018, dated 2024)", "key": {"[1]": {"system": "male Wistar rats", "test": "Effect on sleep/wake (EEG telemetry) in rats", "assay_type": "in vivo, rat", "settings": "oral gavage, over 12 hours", "protocol": "Effects on sleep/wake parameters were investigated in male Wistar rats. Briefly, rats were stereotaxically implanted with cortical electrodes for electroencephalogram (EEG) recording using a telemetric system (Data Sciences Int., Saint Paul, MN, USA) for the acquisition, transfer and storage of motor activity and EEG signals. EEG signals were analysed according to a procedure adapted from the algorithm proposed by R. P. Louis et al. (J. Neurosci. Methods, 2004, 133, 71-80) and the analysis of vigilance stages according to H. Kleinlogel (Neuropsychobiol. 1990-91, 23, 197-204) after a fast Fourier transformation of 8-second duration EEG epochs. This allows the determination for each epoch of its vigilance stage (i.e. active wakefulness, quiet wakefulness, light or deep slow wave sleeps and REM sleep also named paradoxical sleep). Rats received orally (gavage) vehicle, drug or drug combination around 30 minutes before the light onset. Then, EEG signals were continuously recorded and further integrated over the 12-hour diurnal phase.\nEffects on sleep/wake recorded in rats of drugs alone or combined are presented in the FIG. 1 (Pitolisant/duloxetine), FIG. 2 (BP1.3656B/duloxetine), FIG. 3 (pitolisant/reboxetine) and FIG. 4 (pitolisant/atomoxetine): […]"}, "[2]": {"system": "noradrenaline release in the prefrontal cortex", "test": "Noradrenaline release in the prefrontal cortex, in vivo microdialysis", "settings": "rat prefrontal cortex, oral gavage, maximal increase recorded over 150 min post dosing, mean ± SEM", "description": "Effects on noradrenaline release in the prefrontal cortex were investigated in vivo by microdialysis in vigil male Wistar rats as described by AD Medhurst et al. (J. Pharmacol. Exp. Ther. 2007, 321, 1032-1045) and G. Flik et al. (J. Mol. Neurosci. 2015, 56, 320-328). Briefly, anaesthetized rats were implanted with a guide cannulae for sampling in the prefrontal cortex. After at least one week of recovery post-surgery, the microdialysis probe was inserted in the guide cannulae and perfused continuously with artificial cerebrospinal fluid (CSF). The rat was habituated to the microdialysis cage for ˜3 hours. Then, rats received orally (gavage) vehicle, drug or drug combination. CSF samples collected every 30 minutes were analysed for their noradrenaline content by HPLC coupled to a electrochemical detection. Noradrenaline sample levels were expressed in percentage of basal noradrenaline release recorded over 1.5 hour before vehicle or drug treatment."}}, "note": "Counter-ions that a name gives are not always drawn.", "data": [{"smiles": "CNCC[C@H](Oc1cccc2ccccc12)c1cccs1", "note": "[duloxetine]", "values": [{"measurement": "decrease in the REM sleep", "setting": "[1]", "value": "−23", "unit": "%"}, {"measurement": "Maximal increase (% of basal noradrenaline release)", "setting": "[2]", "value": "+113 ± 31%"}]}, {"smiles": "Clc1ccc(CCCOCCCN2CCCCC2)cc1", "note": "[pitolisant, monohydrochloride salt of 1-{3-[3-(4-chlorophenyl)propoxy]propyl}piperidine]", "values": [{"measurement": "decrease in the REM sleep", "setting": "[1]", "value": "does not have any significant effect"}, {"measurement": "Maximal increase (% of basal noradrenaline release)", "setting": "[2]", "value": "+148 ± 49%"}]}]}
